Among the data in the supplement of paper PMC10627819 are Bliss interaction score and fitness values, retold here.

Bounds are passed on as bounds.

Assay [1] has as its system S. aureus DSM 20231. In words: Bliss interaction score (quartile over a dose matrix) (fitness difference); higher = more antagonism (negative = synergy). The procedure, abridged:
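Fitness was defined as normalised growth: OD595 at the start of stationary phase divided by the plate's robust no-drug mean and capped at 1. Single-drug fitness was inferred from combination measurements. The Bliss score is observed fitness minus the product of the single-drug values, summarised by quartiles across technical, biological and donor/recipient replicates.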

Assay [2] concerns S. aureus DSM 20231. In words: fitness (endpoint OD595 vs no drug) (fraction); higher = more growth. An outline of the steps: (§1)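 Bacterial fitness was scored as optical density at the stationary-phase transition relative to the robust mean of no-drug control wells. Scores are capped at 1. The growth data were OD595 readings every 30 min for 14 h at 37 °C, background-subtracted against the first reading, from 384-well plates inoculated at OD595 0.01 in TSB, LB Lennox or CY.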

Another assay deals with S. aureus Newman. Described as above. An outline of the steps:
as §1

For another assay, the system named is S. pneumoniae D39V. The assay is described as above. An outline of the steps:
as §1

[3] abbreviates: first compound 0.078 µg/mL, partner 0.125 µg/mL.
Where [4] appears, read: first compound 0.078 µg/mL, partner 0.25 µg/mL.
Where [5] appears, read: first compound 0.078 µg/mL, partner 0.5 µg/mL.
Setting [6] is: first compound 0.156 µg/mL, partner 0.125 µg/mL.
Setting [7] is: first compound 0.156 µg/mL, partner 0.25 µg/mL.
Setting [8] is: first compound 0.156 µg/mL, partner 0.5 µg/mL.
[9] abbreviates: first compound 0.312 µg/mL, partner 0.125 µg/mL.
Where [10] appears, read: first compound 0.312 µg/mL, partner 0.25 µg/mL.
[11] abbreviates: first compound 0.312 µg/mL, partner 0.5 µg/mL.
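Throughout, for Bliss interaction score (quartile over a dose matrix): first quartile when negative (synergy) and third quartile when positive (antagonism).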
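Throughout, for fitness (endpoint OD595 vs no drug): OD595 on entry to stationary phase over no-drug wells; at most 1.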

`CC(=O)Oc1ccccc1C(=O)O` [Acetylsalicylicacid] + C=C1/C(=C\C=C2/CCC[C@]3(C)[C@@H]([C@H](C)CCCC(C)C)CC[C@@H]23)C[C@@H](O)C[C@@H]1O [Alfacalcidol]: the Bliss interaction score with S. aureus DSM 20231 [1] was -0.294.
As for `CC(=O)Oc1ccccc1C(=O)O` [Acetylsalicylicacid] + CC(C)Cc1ccc(C(C)C(=O)O)cc1 [Ibuprofen], the Bliss interaction score with S. aureus DSM 20231 [1] was -0.275.
Same read-out and setting: with `CC(=O)Oc1ccccc1C(=O)O` [Acetylsalicylicacid] + CC(C)c1c(C(=O)Nc2ccccc2)c(-c2ccccc2)c(-c2ccc(F)cc2)n1CC[C@@H](O)C[C@@H](O)CC(=O)O [Atorvastatin] the figure was 0.213; with `CC(=O)Oc1ccccc1C(=O)O` [Acetylsalicylicacid] + CCCCc1nc(Cl)c(CO)n1Cc1ccc(-c2ccccc2-c2nnn[nH]2)cc1 [Losartan], 0.178; with `CC(=O)Oc1ccccc1C(=O)O` [Acetylsalicylicacid] + CCN(CC)C(=O)/C(C#N)=C/c1cc(O)c(O)c([N+](=O)[O-])c1 [Entacapone], 0.143.
Same read-out and setting: with `CC(=O)Oc1ccccc1C(=O)O` [Acetylsalicylicacid] + CC[C@H](c1ccc(O)cc1)[C@@H](CC)c1ccc(O)cc1 [Hexestrol] the figure was -0.455; with `CC(=O)Oc1ccccc1C(=O)O` [Acetylsalicylicacid] + CN(Cc1cnc2nc(N)nc(N)c2n1)c1ccc(C(=O)N[C@@H](CCC(=O)O)C(=O)O)cc1 [Methotrexate], -0.416; with `CC(=O)Oc1ccccc1C(=O)O` [Acetylsalicylicacid] + C[C@]12CC[C@@H]3c4ccc(O)cc4CC[C@H]3[C@@H]1CC[C@@H]2O [Estradiol], 0.162.
Same read-out and setting: for `CC(=O)Oc1ccccc1C(=O)O` [Acetylsalicylicacid] + Cc1c(Cl)cccc1Nc1ccccc1C(=O)O [Tolfenamic] the value was -0.263.
For `CC(C)c1c(C(=O)Nc2ccccc2)c(-c2ccccc2)c(-c2ccc(F)cc2)n1CC[C@@H](O)C[C@@H](O)CC(=O)O` [Atorvastatin] + CC1(C)S[C@@H]2[C@H](NC(=O)Cc3ccccc3)C(=O)N2[C@H]1C(=O)O [PenicillinG], the Bliss interaction score with S. aureus DSM 20231 [1] turned out to be 0.402.
Still for that read-out and setting: with `CC(C)c1c(C(=O)Nc2ccccc2)c(-c2ccccc2)c(-c2ccc(F)cc2)n1CC[C@@H](O)C[C@@H](O)CC(=O)O` [Atorvastatin] + CO/N=C(\C(=O)N[C@@H]1C(=O)N2C(C(=O)O)=C(COC(C)=O)CS[C@H]12)c1csc(N)n1 [Cefotaxime] the figure was -0.17; with `CC(C)c1c(C(=O)Nc2ccccc2)c(-c2ccccc2)c(-c2ccc(F)cc2)n1CC[C@@H](O)C[C@@H](O)CC(=O)O` [Atorvastatin] + CO[C@@]12[C@H](COC(N)=O)C3=C(C(=O)C(C)=C(N)C3=O)N1C[C@@H]1N[C@@H]12 [MitomycinC], 0.187; with `CC(C)c1c(C(=O)Nc2ccccc2)c(-c2ccccc2)c(-c2ccc(F)cc2)n1CC[C@@H](O)C[C@@H](O)CC(=O)O` [Atorvastatin] + COc1cc(Cc2cnc(N)nc2N)cc(OC)c1OC [Trimethoprim], 0.453.
Regarding `CC(C)c1c(C(=O)Nc2ccccc2)c(-c2ccccc2)c(-c2ccc(F)cc2)n1CC[C@@H](O)C[C@@H](O)CC(=O)O` [Atorvastatin] + O=C(O[C@@H]1Cc2c(O)cc(O)cc2O[C@@H]1c1cc(O)c(O)c(O)c1)c1cc(O)c(O)c(O)c1 [EGCG], the Bliss interaction score with S. aureus DSM 20231 [1] is -0.118.
In the case of `CO/N=C(\C(=O)N[C@@H]1C(=O)N2C(C(=O)O)=C(COC(C)=O)CS[C@H]12)c1csc(N)n1` [Cefotaxime] + CO/N=C(\C(=O)N[C@@H]1C(=O)N2C(C(=O)[O-])=C(C[N+]3(C)CCCC3)CS[C@H]12)c1csc(N)n1 [Cefepime], the fitness turned out to be 0.782 in the assay with S. aureus DSM 20231 [2] (first compound 0.039 µg/mL, partner 0.125 µg/mL); 0.847 in the assay with S. aureus DSM 20231 [2] (first compound 0.039 µg/mL, partner 0.25 µg/mL); 0.824 with S. aureus DSM 20231 [2] (first compound 0.039 µg/mL, partner 0.5 µg/mL); 0.754 with S. aureus DSM 20231 [2] (setting [3]); 0.8 with S. aureus DSM 20231 [2] (setting [4]); 0.772 in the assay with S. aureus DSM 20231 [2] (setting [5]). Also, the fitness in the assay on S. aureus DSM 20231 [2] (setting [6]) was 0.686; in the assay on S. aureus DSM 20231 [2] (setting [7]) it was 0.73; in the assay on S. aureus DSM 20231 [2] (setting [8]), 0.753; in the assay on S. aureus DSM 20231 [2] (setting [9]), 0.664; in the assay with S. aureus DSM 20231 [2] (setting [10]), 0.661; with S. aureus DSM 20231 [2] (setting [11]), 0.71. Moreover, the fitness was found to be 0.75 with S. aureus Newman (setting [3]); 0.695 in the assay on S. aureus Newman (setting [4]); 0.696 with S. aureus Newman (setting [5]); 0.618 with S. aureus Newman (setting [6]); 0.577 in the assay with S. aureus Newman (setting [7]); 0.519 in the assay with S. aureus Newman (setting [8]). The fitness in the assay on S. aureus Newman (setting [9]) was 0.469; with S. aureus Newman (setting [10]), 0.415; in the assay with S. aureus Newman (setting [11]), 0.36; in the assay with S. aureus Newman (first compound 0.625 µg/mL, partner 0.125 µg/mL) it was 0.206; in the assay with S. aureus Newman (first compound 0.625 µg/mL, partner 0.25 µg/mL), 0.178; with S. aureus Newman (first compound 0.625 µg/mL, partner 0.5 µg/mL) it was 0.0892. Besides, the fitness in the assay with S. aureus Newman (first compound 1.25 µg/mL, partner 0.125 µg/mL) amounted to 0.125; with S. aureus Newman (first compound 1.25 µg/mL, partner 0.25 µg/mL) it was 0.0934; with S. aureus Newman (first compound 1.25 µg/mL, partner 0.5 µg/mL), 0.049; with S. aureus Newman (first compound 2.5 µg/mL, partner 0.125 µg/mL), 0.0454; with S. aureus Newman (first compound 2.5 µg/mL, partner 0.25 µg/mL), 0.0501; in the assay with S. aureus Newman (first compound 2.5 µg/mL, partner 0.5 µg/mL) it was 0.0407. The fitness with S. pneumoniae D39V (first compound 0.0018 µg/mL, partner 0.007 µg/mL) is at least 1; in the assay on S. pneumoniae D39V (first compound 0.0018 µg/mL, partner 0.0078 µg/mL) it was at least 1; in the assay with S. pneumoniae D39V (first compound 0.0018 µg/mL, partner 0.014 µg/mL), at least 1; in the assay on S. pneumoniae D39V (first compound 0.0018 µg/mL, partner 0.0155 µg/mL), at least 1; with S. pneumoniae D39V (first compound 0.0018 µg/mL, partner 0.028 µg/mL), 0.93; with S. pneumoniae D39V (first compound 0.0018 µg/mL, partner 0.031 µg/mL), 0.926. Moreover, the fitness in the assay on S. pneumoniae D39V (first compound 0.0035 µg/mL, partner 0.007 µg/mL) is 0.983; with S. pneumoniae D39V (first compound 0.0035 µg/mL, partner 0.0078 µg/mL), 0.998; in the assay with S. pneumoniae D39V (first compound 0.0035 µg/mL, partner 0.014 µg/mL) it was 0.994; with S. pneumoniae D39V (first compound 0.0035 µg/mL, partner 0.0155 µg/mL), 0.996; with S. pneumoniae D39V (first compound 0.0035 µg/mL, partner 0.028 µg/mL) it was 0.8; with S. pneumoniae D39V (first compound 0.0035 µg/mL, partner 0.031 µg/mL), 0.89. Further, the fitness came to 0.94 with S. pneumoniae D39V (first compound 0.007 µg/mL, partner 0.007 µg/mL); 0.921 in the assay with S. pneumoniae D39V (first compound 0.007 µg/mL, partner 0.0078 µg/mL); 0.96 in the assay on S. pneumoniae D39V (first compound 0.007 µg/mL, partner 0.014 µg/mL); 0.891 in the assay with S. pneumoniae D39V (first compound 0.007 µg/mL, partner 0.0155 µg/mL); 0.629 in the assay with S. pneumoniae D39V (first compound 0.007 µg/mL, partner 0.028 µg/mL); 0.553 in the assay with S. pneumoniae D39V (first compound 0.007 µg/mL, partner 0.031 µg/mL).
